In patent US20020137929A1, “1 - (3-heterocyclylphenyl) isothiourea, -isourea, -guanidine and -amidine herbicidal agents” (Intellectual Property Department, BASF Aktiengesellschaft, priority 1998, published 2002):

Columns and labels:
AMBEL (Ragweed, Common) = assay: Postemergence herbicidal evaluation; type: in vivo, Ambrosia artemisifolia; settings: postemergence
In short: (§1)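 First, seedlings were raised for around two weeks. Next, test material in 50/50 acetone/water containing 0.5% TWEEN 20 was sprayed through a nozzle at 40 psi, equivalent to about 0.0156–0.500 kg/ha. Finally, after 4–5 weeks in the greenhouse, plants were rated 0–9.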

[1] = system: CHEAL (Lambsquarters, Common); assay: Preemergence herbicidal evaluation; type: in vivo, Chenopodium album; settings: rated 4-5 weeks after treatment
In short: (§2)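 Scores (0–9) reflect visual comparison with control plants for stand, vigor, malformation, size and chlorosis. Compound was applied to the soil after sowing, before emergence, as an aqueous acetone spray (about 0.0156–0.500 kg/ha), and cups were kept in a greenhouse for 4–5 weeks.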

ORYSAT (Rice, Tebonnet) [2] = assay: Rice tolerance to post-transplant applications, flooded paddy conditions (Table III); type: in vivo, Oryza sativa, (L.) Tebonnet; settings: in vivo
In short: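 Two ten-day-old Tebonnet seedlings transplanted into flooded silt loam (water 1.5 to 3 cm above soil); three days later the water surface was treated with compound in aqueous/acetone 50/50 at about 0.0313 to 0.500 kg/ha. Visual 0-9 injury rating versus control after three to four weeks in greenhouse.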

ORYSAT (Rice, Tebonnet) [3] = assay: Rice tolerance to post-transplant applications, flooded paddy conditions (Table IV); type: in vivo, Oryza sativa, (L.) Tebonnet; settings: in vivo
In short: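 Herbicidal effect is judged by eye on a 0–9 scale versus control, 3–4 weeks after dosing. Dosing is into flood water kept 1.5–3 cm over the soil, at about 0.0313–0.500 kg/ha in aqueous/acetone 50/50 v/v, on 3–5 cm weeds and 1.5–2.5-leaf rice seedlings.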

[4] = system: IPOSS (Morningglory Spp.); assay: Preemergence herbicidal evaluation; type: in vivo, Ipomoea Spp.; settings: rated 4-5 weeks after treatment
In short: as §2

[5] = system: SAGPY (Arrowhead (Pygmaea)); assay: Postemergence weed control under flooded paddy conditions; type: in vivo, Sagittaria pygmaea; settings: postemergence weeds, 3-4 weeks after treatment
In short: (§3)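 Weeds 3 to 5 cm tall and rice seedlings at the 1.5 to 2.5 leaf stage were flooded, with water held 1.5 to 3 cm above the soil. Compounds in 50/50 v/v aqueous/acetone went into the flood water at about 0.0313 to 0.500 kg/ha. Visual 0-9 ratings versus control were made 3 to 4 weeks later.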

[6] = system: TRZAWR (Wheat, Winter, cv Riband); assay: Postemergence herbicidal evaluation; type: in vivo, Triticum aestivum; settings: postemergence
In short: as §1

GALAP (Galium) = assay: Postemergence herbicidal evaluation; type: in vivo, Galium aparine; settings: postemergence
In short: as §1

GLXMA (Soybean) [7] = assay: Postemergence herbicidal evaluation; type: in vivo, Glycine max
Protocol: In the tests, seedling plants are grown in jiffy flats for about two weeks. The test compounds are dispersed in 50/50 acetone/water mixtures containing 0.5% TWEEN®20, a polyoxyethylene sorbitan monolaurate surfactant of Atlas Chemical Industries, in sufficient quantities to provide the equivalent of about 0.0156 kg to 0.500 kg per hectare of active compound when applied to the plants through a spray nozzle operating at 40 psi for a predetermined time. After spraying, the plants are placed on greenhouse benches and are cared for in accordance with conventional greenhouse procedures. From four to five weeks after treatment, the seedling plants are examined and rated according to the rating system set forth below. Where more than one test is involved for a given compound, the data are averaged.
Plant species employed in these evaluations are reported by header abbreviation, common name and scientific name.
(§4) Results of herbicide evaluation are expressed on a rating scale (0-9). The scale is based upon a visual observation of plant stand, vigor, malformation, size, chlorosis and overall plant appearance as compared with a control.

GLXMA (Soybean) [8] = assay: Preemergence herbicidal evaluation; type: in vivo, Glycine max; settings: rated 4-5 weeks after treatment
Description: as §4
The preemergence herbicidal activity of the test compounds of the present invention is exemplified by the following tests in which the seeds of a variety of monocotyledonous and dicotyledonous plants are separately mixed with potting soil and planted on top of approximately one inch of soil in separate pint cups. After planting, the cups are sprayed with the selected aqueous acetone solution containing test compound in sufficient quantity to provide the equivalent of about 0.0156 to 0.500 kg per hectare of test compound per cup. The treated cups are then placed on greenhouse benches, watered and cared for in accordance with conventional greenhouse procedures. From four to five weeks after treatment, the tests are terminated and each cup is examined and rated according to the rating system provided in Example 37.
The compounds evaluated are reported by compound number given in Example 37.

[9] = system: IPOSS (Morningglory Spp.); assay: Postemergence herbicidal evaluation; type: in vivo, Ipomoea Spp.
In short: as §1

MOOVA (Monochoria) = assay: Postemergence weed control under flooded paddy conditions; type: in vivo, Monochoria vaginalis; settings: postemergence weeds, 3-4 weeks after treatment
In short: as §3

CCC1SC(=Nc2cc(N3C(=O)C4=C(CCCC4)C3=O)c(F)cc2Cl)N(C)C1=O (stereo not drawn) [Compound 6, N-{4-chloro-5-[(5-ethyl-3-methyl-4-oxo-2-thiazolidinylidene)amino]-2-fluorophenyl}-1-cyclohexene-1,2-dicarboximide]
AMBEL herbicidal rating (AMBEL (Ragweed, Common); rate 0.0157 kg/ha): 2.0
AMBEL herbicidal rating (AMBEL (Ragweed, Common); rate 0.0313 kg/ha): 2.0
AMBEL herbicidal rating (AMBEL (Ragweed, Common); rate 0.0625 kg/ha): 2.0
AMBEL herbicidal rating (AMBEL (Ragweed, Common); rate 0.1250 kg/ha): 4.0
AMBEL herbicidal rating (AMBEL (Ragweed, Common); rate 0.2500 kg/ha): 4.0
AMBEL herbicidal rating (AMBEL (Ragweed, Common); rate 0.5000 kg/ha): 4.0
CHEAL preemergence herbicidal rating ([1]; rate 0.1250 kg/ha): 2.0
CHEAL preemergence herbicidal rating ([1]; rate 0.2500 kg/ha): 4.0
CHEAL preemergence herbicidal rating ([1]; rate 0.5000 kg/ha): 9.0
Herbicidal rating ORYSAT (rice tolerance) (ORYSAT (Rice, Tebonnet) [2]): 0.0
Herbicidal rating ORYSAT (rice tolerance) (ORYSAT (Rice, Tebonnet) [3]): 0.0
IPOSS preemergence herbicidal rating ([4]; rate 0.1250 kg/ha): 0.0
IPOSS preemergence herbicidal rating ([4]; rate 0.2500 kg/ha): 0.0
IPOSS preemergence herbicidal rating ([4]; rate 0.5000 kg/ha): 0.0
Herbicidal rating SAGPY ([5]; rate 0.0313 kg/ha): 0.0
Herbicidal rating SAGPY ([5]; rate 0.0625 kg/ha): 0.0
Herbicidal rating SAGPY ([5]; rate 0.1250 kg/ha): 0.0
Herbicidal rating SAGPY ([5]; rate 0.2500 kg/ha): 0.0
Herbicidal rating SAGPY ([5]; rate 0.5000 kg/ha): 0.0
TRZAWR herbicidal rating ([6]; rate 0.0157 kg/ha): 2.5
TRZAWR herbicidal rating ([6]; rate 0.0313 kg/ha): 2.5
TRZAWR herbicidal rating ([6]; rate 0.0625 kg/ha): 3.0
TRZAWR herbicidal rating ([6]; rate 0.1250 kg/ha): 3.0
TRZAWR herbicidal rating ([6]; rate 0.2500 kg/ha): 3.5
TRZAWR herbicidal rating ([6]; rate 0.5000 kg/ha): 3.5
GALAP herbicidal rating (GALAP (Galium); rate 0.0157 kg/ha): 0.0
GALAP herbicidal rating (GALAP (Galium); rate 0.0313 kg/ha): 0.0
GALAP herbicidal rating (GALAP (Galium); rate 0.0625 kg/ha): 0.0
GALAP herbicidal rating (GALAP (Galium); rate 0.1250 kg/ha): 2.0
GALAP herbicidal rating (GALAP (Galium); rate 0.2500 kg/ha): 7.0
GALAP herbicidal rating (GALAP (Galium); rate 0.5000 kg/ha): 9.0
GLXMA herbicidal rating (GLXMA (Soybean) [7]; rate 0.0157 kg/ha): 3.0
GLXMA herbicidal rating (GLXMA (Soybean) [7]; rate 0.0313 kg/ha): 3.0
GLXMA herbicidal rating (GLXMA (Soybean) [7]; rate 0.0625 kg/ha): 3.0
GLXMA herbicidal rating (GLXMA (Soybean) [7]; rate 0.1250 kg/ha): 3.5
GLXMA herbicidal rating (GLXMA (Soybean) [7]; rate 0.2500 kg/ha): 4.0
GLXMA herbicidal rating (GLXMA (Soybean) [7]; rate 0.5000 kg/ha): 4.0
GLXMA preemergence herbicidal rating (GLXMA (Soybean) [8]; rate 0.1250 kg/ha): 0.0
GLXMA preemergence herbicidal rating (GLXMA (Soybean) [8]; rate 0.2500 kg/ha): 0.0
GLXMA preemergence herbicidal rating (GLXMA (Soybean) [8]; rate 0.5000 kg/ha): 0.0
IPOSS herbicidal rating ([9]; rate 0.0157 kg/ha): 0.0
IPOSS herbicidal rating ([9]; rate 0.0313 kg/ha): 0.0
IPOSS herbicidal rating ([9]; rate 0.0625 kg/ha): 0.0
IPOSS herbicidal rating ([9]; rate 0.1250 kg/ha): 2.0
IPOSS herbicidal rating ([9]; rate 0.2500 kg/ha): 4.0
IPOSS herbicidal rating ([9]; rate 0.5000 kg/ha): 9.0
Herbicidal rating MOOVA (MOOVA (Monochoria); rate 0.0313 kg/ha): 1.0
Herbicidal rating MOOVA (MOOVA (Monochoria); rate 0.0625 kg/ha): 4.0
Herbicidal rating MOOVA (MOOVA (Monochoria); rate 0.1250 kg/ha): 4.0
Herbicidal rating MOOVA (MOOVA (Monochoria); rate 0.2500 kg/ha): 4.5
Herbicidal rating MOOVA (MOOVA (Monochoria); rate 0.5000 kg/ha): 4.5
